In patent US20250276996A1, “CATIONICALLY-ENFRAMED HIGH DENSITY AROMATIC PEPTIDES” (Research Foundation of the City University of New York, priority 2022, published 2025):
“Also recorded” adds a separate entry of the source. Non-standard residues stand in square brackets, D forms with d. Residues, ends and D or L forms follow the SMILES beside them. *: point of attachment. Biotin = O=C1N[C@H]2[C@H](CS[C@H]2CCCCC(=O)*)N1

Legend:
[1] = test system: retinal ganglion cells (RGCs); assay: Optic nerve crush (ONC), retinal ganglion cell survival; format: in vivo, C57BL/6 mice; settings: for Average density of retinal ganglion cells: 3 mg/kg IP daily 14 days
Source text: Quantification of Retinal Ganglion Cell Survival: To test whether the protective effects of biotin-HDAP2 in serum-starved cultured cells extended to neurons in vivo, the survival of RGCs following optic nerve crush (ONC) in the presence and absence of the peptide was studied. To control for density differences of RGCs across the retina, values were standardized by comparing ratios of RBPMS-labeled RGCs with the densities of starburst amacrine cells labeled by choline acetyltransferase (ChAT). Starburst amacrine cells, like other displaced amacrine cells, are unaffected by ONC in the short-term. In control tissue, displaced starburst amacrine cells accounted for about […] of cells in the ganglion cell layer and ratios of RBPMS labeled cells to ChAT neurons was about 4 to 1 in central retina and 3 to 1 at other eccentricities (FIG. 11B).
Optic Nerve Crush Procedure: Adult mice (2-6 mo.) were anesthetized with a cocktail of ketamine (85 mg/kg) and xylazine (20 mg/kg) (IP), the corneas were numbed with a drop of 0.5% proparacaine hydrochloride ophthalmic solution (Falcon Pharmaceuticals), and the animals were positioned under a Nikon dissecting microscope, dorsolaterally either on the left or right sides. The dorsomedial conjunctiva was cut with microdissection spring scissors, the […] muscles were separated, and the eyeball was slightly retracted to expose the optic nerve. Fine, self-closing forceps (Roboz, RS-5027) were used to clamp the optic nerve 1-2 mm behind the globe, for approximately 3 seconds without applying additional tension. The eye was repositioned within the orbit, the conjunctiva reflected over the extraocular eye muscles and the incision covered with ophthalmic polymyxin B-neomycin-bacitracin ointment (3.5 mg/gm, Bausch and Lomb). The optic nerves from the contralateral eye were untouched and used as untreated controls. Following the crush procedure, mice were given a subcutaneous injection of extended-release buprenorphine (0.05 mg/kg, Ethiqua XR) for analgesia and placed on a heating pad until awake and grooming, at which point they were returned to their home cages. Half the animals were given biotin-HDAP2 immediately following the procedure and then daily thereafter (3 mg/kg, IP) for 14 days.
Immunohistochemistry: Fixed retinas were labeled with cell markers using conventional immunohistochemical protocols to identify cells and structures associated with biotin-HDAP2, and to identify retinal ganglion cells and starburst amacrine cells to assess cell survival following optic nerve crush. Retinas and sections were blocked and permeabilized with 4% normal donkey serum in 0.1M Tris or phosphate buffers with 0.5% Triton-X for 1 hour and then incubated overnight (for sections) or for 3 days (for wholemounts) at 4° C. in selected primary antibodies, and 2% normal donkey serum in the same buffer. The tissue was rinsed 3×10 minutes with buffer and then incubated with secondary antibodies for one hour at room temperature (sections) or overnight at 4° C. for wholemounts. Antibodies and markers used were rabbit anti-RBPMS (1:200; Invitrogen, PA5-31231) to label all retinal ganglion cells; goat anti-choline acetyltransferase (ChAT 1:100; EMD Millipore, AB144P) to label starburst amacrine cells; rabbit anti-glutamine synthetase (1:200; Invitrogen, PA1-46165) to label Müller cells; and rabbit anti-cox4 (1:200; Invitrogen, PA5-29992) to identify mitochondria. Secondary antibodies were raised in donkey and conjugated with either Alexa Fluor 488, 594 or 647 (1:500, Life Sciences). To identify the distribution of cell nuclei, and to delineate retinal layers, tissue was labeled with the nuclear stain ToPro3 (1:1000; Invitrogen) for 15 minutes. After staining, sections and retinas were rinsed in buffer and coverslipped in Vectashield mounting media (Vector Labs) to prevent photobleaching. […]

[2] = test system: MDBK cells; assay: Uptake and intracellular localization of biotin-HDAP2 (streptavidin staining); format: cell-based, bovine; settings: for cellular uptake and intracellular localization: 37° C., up to 1 h
Experimental: Biotin-HDAP2 was studied using Madin-Darby Bovine Kidney Epithelial cell line (MDBK). Monolayers of cells were grown on 6-well plates for 3 days. On day 4, cells were washed twice with pre-warmed DMEM, and then incubated with 0.2 ml of DMEM containing 10 μM biotin-HDAP2 at 37° C. for up to 1 h. Cells were then washed and fixed in 4% paraformaldehyde and biotin-HDAP2 was detected using Alexa FLUOR™ 488 streptavidin. Cells were also co-stained with MitoTracker-Red or DAPI to identify […] or nuclei, respectively. Cells were then visualized in a fluorescent microscope (Nikon Eclipse-ci-SRS).
Biotin-HDAP2 was studied using Madin-Darby Bovine Kidney Epithelial cell line (MDBK). Monolayers of cells were grown on 6-well plates for 3 days. On day 4, cells were washed twice with pre-warmed DMEM, and then incubated with 0.2 ml of DMEM containing 10 μM biotin-HDAP2 at 37° C. for up to 1 h. Cells were then washed and fixed in 4% paraformaldehyde and biotin-HDAP2 was detected using Alexa FLUOR™ 488 streptavidin. Cells were also co-stained with MitoTracker-Red to identify mitochondria. Cells were then visualized using a fluorescent microscope (Nikon Eclipse-ci-SRS).
Biotin-HDAP2 uptake: To assess uptake of biotin-HDAP2 into cells, cultures were incubated in serum-free media for three days to deplete endogenous biotin (Birk et al., 2013) and then treated with biotin-HDAP2 (1 μM) for one hour. Cells were fixed with 4% paraformaldehyde and incubated for one hour with Alexa Fluor 594 conjugated streptavidin (1:100, Jackson ImmunoResearch) to localize the peptide within the cells, Hoechst 33342 (10 μg/ml, Novus) to label nuclei, and Mito Tracker Red CMXRos (MTR; 50 nM, Invitrogen) to identify mitochondria; MTR binds to thiol groups, which are heavily concentrated in the mitochondrial matrix. Cells were rinsed and imaged immediately in the dish using a Nikon Eclipse 50i fluorescent microscope with a 40× immersion objective (NA 0.8).
Intracellular Localization of biotin-HDAP2: Intracellular targeting of biotin-HDAP2 was determined by incubating MDBK cells (ATCC-CCL22) that were grown in biotin-free media for 72 hours, with 10 μM of N-biotinylated biotin-HDAP2 for 1 hour. Cells were then fixed with 4% paraformaldehyde, permeabilized with 0.1% Triton X-100, and treated with streptavidin conjugated with Alexa Fluor 488 (SA) for 30 minutes at room temperature. […]
SA fluorescence was normalized to Hoechst fluorescence to account for differences in cell number in each field. The intensity of SA fluorescence was measured in each field, using the “Analyze” feature in ImageJ to compute the mean pixel intensity (in arbitrary fluorescence units) from the images. […]

[3] = test system: MDBK cells; assay: NAO binding to mitochondria in MDBK cells; format: cell-based, bovine; settings: NAO 1 μM, biotin-HDAP2 10 μM

N=C(N)NCCC[C@@H](NC(=O)[C@H](Cc1ccccc1)NC(=O)[C@H](Cc1ccccc1)NC(=O)[C@@H](CCCNC(=N)N)NC(=O)CCCC[C@@H]1SC[C@@H]2NC(=O)N[C@@H]21)C(N)=O [biotin-HDAP2, Biotin-dArg-Phe-Phe-dArg-NH2] (Biotin-[dR]FF[dR]-NH2)
protection of retinal ganglion cells following optic nerve crush ([1]; 3 mg/kg): protected retinal ganglion cells following optic nerve crush; also recorded: significantly greater survival of retinal ganglion cells | Average density of retinal ganglion cells ([1]; Central, ONC): 446.1 ± 42.92 cells/mm2 | Average density of retinal ganglion cells ([1]; Midperipheral, ONC): 694.5 ± 52.61 cells/mm2 | expression of RBPMS compared to untreated ([1]; ONC): doubled | ratio of RGCs to ChAT cells (to 1) ([1]; ONC, treated): 0.70 | more RBPMS labeled cells than untreated animals ([1]; ONC, treated daily): 40% | expression of RBPMS (mean pixel intensity) ([1]; ONC, treated, n=23): 9.8±0.78 arbitrary fluorescence units | survival of retinal ganglion cells greater compared to untreated controls ([1]; ONC, intraperitoneal or subcutaneous administration): 50% | Average density of retinal ganglion cells ([1]; Peripheral, ONC): 565.4 ± 53.61 cells/mm2 | percent increase in RBPMS labeled cells vs untreated ONC ([1]; central retina): 18% | percent increase in RBPMS labeled cells vs untreated ONC ([1]; midperipheral retina): 38% | percent increase in RBPMS labeled cells vs untreated ONC ([1]; periphery): 50% | cellular uptake and intracellular localization ([2]; 10 μM): targets mitochondria; also recorded: penetrates cell membranes | cellular uptake and intracellular localization ([2]; 10 μM, listed as Biotin-HDAP2): primarily localized to the cytoplasmic compartment; also recorded: taken into mitochondria; also recorded: co-localized with MitoTracker-Red | speed of entry into the cell compared with biocytin ([2]; 10 μM, 1 hour, serum-starved MDBK cells): about 6 times | level of biotin-HDAP2 in cells relative to endogenous biotin ([2]; MDBK cells, streptavidin AF 488): > 10 × | NAO binding to mitochondria [3]: inhibited NAO binding to mitochondria in MDBK cells
